Experiments:
[1] = molecular target: TGF-beta receptor type-1 (Homo sapiens) (UniProt P36897); settings: Compound concentration 1000.0 nM
[2] = molecular target: Delta-type opioid receptor (Homo sapiens) (UniProt P41143); settings: Compound concentration 10.0 uM
Homo sapiens = species on record: Homo sapiens; assay: Inhibition of Nicotinic Acetylcholine at compound concentration of 10.0 uM in the Eurofins-Panlabs radioligand binding assay (Eurofins_assay_258590); type: protein-complex assay; settings: Compound concentration 10.0 uM
[3] = molecular target: Receptor-type tyrosine-protein phosphatase C (Homo sapiens) (UniProt P08575); assay: Inhibition of Protein Tyrosine Phosphatase, PTPRC (CD45) at 10 µM in the Eurofins-Panlabs enzyme assay (Eurofins_assay_190010); settings: Compound concentration 10.0 uM
Chain of Receptor-type tyrosine-protein phosphatase C (Homo sapiens) (P08575 whole entry): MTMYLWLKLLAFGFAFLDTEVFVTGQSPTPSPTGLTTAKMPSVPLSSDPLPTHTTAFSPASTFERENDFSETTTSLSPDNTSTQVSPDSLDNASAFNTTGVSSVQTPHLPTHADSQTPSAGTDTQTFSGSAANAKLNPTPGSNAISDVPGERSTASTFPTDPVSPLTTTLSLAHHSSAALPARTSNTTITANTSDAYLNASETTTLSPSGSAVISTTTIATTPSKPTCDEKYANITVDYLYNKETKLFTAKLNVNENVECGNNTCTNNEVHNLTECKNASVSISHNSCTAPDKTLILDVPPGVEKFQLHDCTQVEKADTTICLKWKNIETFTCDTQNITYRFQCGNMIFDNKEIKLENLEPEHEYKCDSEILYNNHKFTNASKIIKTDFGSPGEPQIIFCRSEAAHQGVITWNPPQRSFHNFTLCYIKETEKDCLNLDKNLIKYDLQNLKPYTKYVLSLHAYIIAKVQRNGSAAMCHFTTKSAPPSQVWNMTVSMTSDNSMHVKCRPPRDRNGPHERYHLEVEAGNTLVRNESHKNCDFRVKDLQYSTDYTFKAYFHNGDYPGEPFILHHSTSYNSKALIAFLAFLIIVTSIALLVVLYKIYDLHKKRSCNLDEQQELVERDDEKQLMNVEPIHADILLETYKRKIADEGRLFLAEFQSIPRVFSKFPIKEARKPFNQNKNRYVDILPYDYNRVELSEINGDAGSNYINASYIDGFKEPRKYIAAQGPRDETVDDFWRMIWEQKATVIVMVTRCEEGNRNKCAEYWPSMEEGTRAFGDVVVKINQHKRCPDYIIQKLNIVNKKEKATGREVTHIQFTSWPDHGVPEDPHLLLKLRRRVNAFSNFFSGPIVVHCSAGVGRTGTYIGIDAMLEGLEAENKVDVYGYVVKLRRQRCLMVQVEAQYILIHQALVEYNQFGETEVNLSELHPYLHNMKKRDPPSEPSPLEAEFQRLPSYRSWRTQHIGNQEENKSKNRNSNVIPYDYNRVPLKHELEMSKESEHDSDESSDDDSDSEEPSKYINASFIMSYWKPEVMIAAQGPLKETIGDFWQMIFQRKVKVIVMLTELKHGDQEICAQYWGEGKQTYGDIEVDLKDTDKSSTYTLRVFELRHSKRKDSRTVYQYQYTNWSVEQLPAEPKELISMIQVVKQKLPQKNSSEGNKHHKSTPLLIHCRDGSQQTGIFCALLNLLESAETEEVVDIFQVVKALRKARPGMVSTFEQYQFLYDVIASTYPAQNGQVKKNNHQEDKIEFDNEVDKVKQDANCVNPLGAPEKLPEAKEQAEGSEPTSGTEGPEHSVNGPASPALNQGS

[4] = molecular target: Alpha-2C adrenergic receptor (Homo sapiens) (UniProt P18825); assay: Adrenergic alpha2C Eurofins-Panlabs radioligand binding assay; parameters: ligand concentration 1 nM, non-specific ligand with concentration 10 µM WB-4101, incubation time 60 min, incubation temperature 25 °C; settings: Compound concentration 10.0 uM
Chain of Alpha-2C adrenergic receptor (Homo sapiens) (P18825 whole entry): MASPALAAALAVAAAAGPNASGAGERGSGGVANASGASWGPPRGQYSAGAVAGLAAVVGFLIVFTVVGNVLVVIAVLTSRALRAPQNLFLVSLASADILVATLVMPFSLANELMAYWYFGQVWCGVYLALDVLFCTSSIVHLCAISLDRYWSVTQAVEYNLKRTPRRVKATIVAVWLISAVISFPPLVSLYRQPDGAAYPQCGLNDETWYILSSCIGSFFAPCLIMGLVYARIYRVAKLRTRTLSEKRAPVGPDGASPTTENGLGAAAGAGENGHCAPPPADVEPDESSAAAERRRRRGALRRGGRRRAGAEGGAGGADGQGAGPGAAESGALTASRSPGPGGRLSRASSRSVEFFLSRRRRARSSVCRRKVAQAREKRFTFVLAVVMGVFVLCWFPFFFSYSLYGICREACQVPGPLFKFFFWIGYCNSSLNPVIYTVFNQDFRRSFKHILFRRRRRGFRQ

[5] = molecular target: Melanocortin receptor 4 (Homo sapiens) (UniProt P32245); assay: Inhibition of Melanocortin MC4 at 10 µM in the Eurofins-Panlabs radioligand binding assay (Eurofins_assay_251350); parameters: ligand concentration 0.02 nM; settings: Compound concentration 10.0 uM
[6] = molecular target: 5-hydroxytryptamine receptor 6 (Homo sapiens) (UniProt P50406); assay: Inhibition of Serotonin (5-Hydroxytryptamine) 5-HT6 at 10 µM in the Eurofins-Panlabs radioligand binding assay (Eurofins_assay_272200); settings: Compound concentration 10.0 uM
Chain of 5-hydroxytryptamine receptor 6 (Homo sapiens) (P50406 whole entry): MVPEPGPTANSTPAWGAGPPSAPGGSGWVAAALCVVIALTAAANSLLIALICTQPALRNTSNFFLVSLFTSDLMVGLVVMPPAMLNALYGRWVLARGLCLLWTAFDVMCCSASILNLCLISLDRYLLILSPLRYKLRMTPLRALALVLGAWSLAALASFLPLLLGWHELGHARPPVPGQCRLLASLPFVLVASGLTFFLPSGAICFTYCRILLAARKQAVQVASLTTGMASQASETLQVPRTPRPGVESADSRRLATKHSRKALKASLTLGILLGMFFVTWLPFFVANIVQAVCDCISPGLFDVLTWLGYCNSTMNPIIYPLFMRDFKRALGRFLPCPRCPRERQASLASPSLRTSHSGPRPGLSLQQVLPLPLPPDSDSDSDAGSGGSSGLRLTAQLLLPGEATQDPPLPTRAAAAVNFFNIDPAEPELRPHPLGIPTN

[7] = molecular target: Histamine H3 receptor (Homo sapiens) (UniProt Q9Y5N1); assay: Histamine H3 Eurofins-Panlabs radioligand binding assay; settings: Compound concentration 10.0 uM
[8] = molecular target: Histamine H4 receptor (Homo sapiens) (UniProt Q9H3N8); assay: Histamine H4 Eurofins-Panlabs radioligand binding assay; settings: Compound concentration 10.0 uM
[9] = molecular target: Prostaglandin E2 receptor EP3 subtype (Homo sapiens) (UniProt P43115); assay: Prostanoid EP3 Eurofins-Panlabs radioligand binding assay; parameters: ligand concentration 0.5 nM, non-specific ligand with concentration 10 µM Prostaglandin EŽ2 (PGE2), incubation time 60 min, incubation temperature 25 °C; settings: Compound concentration 10.0 uM
[10] = molecular target: Tyrosine-protein phosphatase non-receptor type 2 (Homo sapiens, UniProt P17706); assay: Protein Tyrosine Phosphatase, PTPN2 (TCPTP) Eurofins-Panlabs enzyme assay; parameters: substrate with concentration DiFMUP, incubation time 60 min, incubation temperature 37 °C
[11] = molecular target: Type-1 angiotensin II receptor (Homo sapiens) (UniProt P30556); assay: Angiotensin AT1 Eurofins-Panlabs radioligand binding assay; settings: Compound concentration 10.0 uM
[12] = molecular target: Bombesin receptor (Rattus norvegicus) (UniProt P52500+P24053+Q8K418); assay: Bombesin, Non-Selective Eurofins-Panlabs radioligand binding assay; type: protein assay; settings: Compound concentration 10.0 uM
[13] = molecular target: C-C chemokine receptor type 1 (Homo sapiens) (UniProt P32246); assay: Chemokine CCR1 Eurofins-Panlabs radioligand binding assay; settings: Compound concentration 10.0 uM
Chain of C-C chemokine receptor type 1 (Homo sapiens) (P32246 whole entry): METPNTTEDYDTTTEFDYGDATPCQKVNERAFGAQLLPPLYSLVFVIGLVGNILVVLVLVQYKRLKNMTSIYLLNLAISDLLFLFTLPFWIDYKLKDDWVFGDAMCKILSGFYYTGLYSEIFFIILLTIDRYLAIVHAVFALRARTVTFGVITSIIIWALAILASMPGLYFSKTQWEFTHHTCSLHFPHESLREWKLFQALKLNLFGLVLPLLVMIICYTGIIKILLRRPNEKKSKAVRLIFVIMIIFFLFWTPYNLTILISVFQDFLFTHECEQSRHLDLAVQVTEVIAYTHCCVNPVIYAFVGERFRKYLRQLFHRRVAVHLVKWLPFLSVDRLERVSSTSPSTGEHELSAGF

[14] = molecular target: D(1B) dopamine receptor (Homo sapiens) (UniProt P21918); assay: Dopamine D5 Eurofins-Panlabs radioligand binding assay; settings: Compound concentration 10.0 uM
Chain of D(1B) dopamine receptor (Homo sapiens) (P21918 whole entry): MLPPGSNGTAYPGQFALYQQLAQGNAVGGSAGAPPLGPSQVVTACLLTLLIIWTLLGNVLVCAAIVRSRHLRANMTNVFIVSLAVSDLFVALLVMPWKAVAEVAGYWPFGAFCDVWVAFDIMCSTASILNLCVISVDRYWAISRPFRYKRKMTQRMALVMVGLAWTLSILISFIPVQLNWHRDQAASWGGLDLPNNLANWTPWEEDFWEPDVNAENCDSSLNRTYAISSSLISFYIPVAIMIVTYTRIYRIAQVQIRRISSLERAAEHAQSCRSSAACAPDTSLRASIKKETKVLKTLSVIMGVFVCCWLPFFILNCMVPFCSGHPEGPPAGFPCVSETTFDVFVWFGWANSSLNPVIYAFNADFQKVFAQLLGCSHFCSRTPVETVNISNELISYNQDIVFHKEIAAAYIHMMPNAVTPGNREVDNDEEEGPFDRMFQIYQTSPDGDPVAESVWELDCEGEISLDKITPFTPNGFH

[15] = molecular target: Prostaglandin E2 receptor EP1 subtype (Homo sapiens) (UniProt P34995); assay: Prostanoid EP1 Eurofins-Panlabs radioligand binding assay; settings: Compound concentration 10.0 uM
Chain of Prostaglandin E2 receptor EP1 subtype (Homo sapiens) (P34995 whole entry): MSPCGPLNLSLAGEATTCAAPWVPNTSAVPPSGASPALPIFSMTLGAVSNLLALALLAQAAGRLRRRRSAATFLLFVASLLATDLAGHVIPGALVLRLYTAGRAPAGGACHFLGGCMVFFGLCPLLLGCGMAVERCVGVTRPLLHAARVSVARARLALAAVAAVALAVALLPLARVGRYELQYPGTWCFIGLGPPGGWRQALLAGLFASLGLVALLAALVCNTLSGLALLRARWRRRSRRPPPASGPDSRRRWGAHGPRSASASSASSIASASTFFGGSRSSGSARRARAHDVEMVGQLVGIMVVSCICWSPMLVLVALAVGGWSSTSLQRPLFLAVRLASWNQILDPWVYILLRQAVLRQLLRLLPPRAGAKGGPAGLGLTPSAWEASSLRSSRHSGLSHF

[16] = molecular target: Somatostatin receptor type 2 (Homo sapiens) (UniProt P30874); assay: Somatostatin sst2 Eurofins-Panlabs radioligand binding assay; parameters: ligand concentration 0.1 nM; settings: Compound concentration 10.0 uM
[17] = molecular target: Neuromedin-K receptor (Homo sapiens) (UniProt P29371); assay: Tachykinin NK3 Eurofins-Panlabs radioligand binding assay; parameters: ligand concentration 0.8 nM; settings: Compound concentration 10.0 uM
[18] = molecular target: Sodium-dependent serotonin transporter (Homo sapiens) (UniProt P31645); settings: Compound concentration 10.0 uM
[19] = molecular target: T1, Muscarinic acetylcholine receptor M1 (Homo sapiens) (UniProt P11229); settings: Compound concentration 10.0 uM
T1 sequence (whole entry): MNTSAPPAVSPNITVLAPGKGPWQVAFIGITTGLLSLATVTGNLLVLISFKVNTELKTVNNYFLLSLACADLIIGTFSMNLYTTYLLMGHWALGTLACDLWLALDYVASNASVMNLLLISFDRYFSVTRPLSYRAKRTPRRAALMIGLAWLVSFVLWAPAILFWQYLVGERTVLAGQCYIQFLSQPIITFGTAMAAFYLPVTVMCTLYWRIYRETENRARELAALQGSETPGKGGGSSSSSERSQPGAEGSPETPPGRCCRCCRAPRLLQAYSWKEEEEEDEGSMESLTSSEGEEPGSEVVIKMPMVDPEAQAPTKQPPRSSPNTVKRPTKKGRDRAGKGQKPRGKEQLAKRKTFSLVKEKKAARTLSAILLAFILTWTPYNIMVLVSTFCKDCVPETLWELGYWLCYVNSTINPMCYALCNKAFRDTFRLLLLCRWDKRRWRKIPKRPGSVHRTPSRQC

Rattus norvegicus = species on record: Rattus norvegicus; settings: Compound concentration 10.0 uM
[20] = molecular target: GABA-A receptor; anion channel (Rattus norvegicus) (UniProt O09028+P15431+P18506+P18508+P19969+P20236+P23574+P23576+P28471+P28473+P30191+P62813+P63079+P63138+Q91ZM7+Q9ES14); settings: Compound concentration 10.0 uM
[21] = molecular target: T2, Muscarinic acetylcholine receptor M4 (Homo sapiens) (UniProt P08173); settings: Compound concentration 10.0 uM
T2 sequence (whole entry): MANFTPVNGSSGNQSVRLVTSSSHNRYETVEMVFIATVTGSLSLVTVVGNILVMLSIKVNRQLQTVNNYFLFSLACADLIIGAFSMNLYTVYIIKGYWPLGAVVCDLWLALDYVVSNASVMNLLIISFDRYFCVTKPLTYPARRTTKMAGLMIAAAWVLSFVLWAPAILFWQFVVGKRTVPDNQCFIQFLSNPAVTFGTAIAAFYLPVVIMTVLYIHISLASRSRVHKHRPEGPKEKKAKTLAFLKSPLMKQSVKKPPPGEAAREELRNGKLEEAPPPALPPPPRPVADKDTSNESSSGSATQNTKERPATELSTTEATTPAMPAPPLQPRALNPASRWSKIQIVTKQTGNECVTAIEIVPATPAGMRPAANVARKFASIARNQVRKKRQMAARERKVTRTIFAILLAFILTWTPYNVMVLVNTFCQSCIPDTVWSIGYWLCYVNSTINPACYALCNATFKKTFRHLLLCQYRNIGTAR

[22] = molecular target: Synaptic vesicular amine transporter (Homo sapiens) (UniProt Q05940); settings: Oryctolagus cuniculus; Compound concentration 10.0 uM
Chain of Synaptic vesicular amine transporter (Homo sapiens) (Q05940 whole entry): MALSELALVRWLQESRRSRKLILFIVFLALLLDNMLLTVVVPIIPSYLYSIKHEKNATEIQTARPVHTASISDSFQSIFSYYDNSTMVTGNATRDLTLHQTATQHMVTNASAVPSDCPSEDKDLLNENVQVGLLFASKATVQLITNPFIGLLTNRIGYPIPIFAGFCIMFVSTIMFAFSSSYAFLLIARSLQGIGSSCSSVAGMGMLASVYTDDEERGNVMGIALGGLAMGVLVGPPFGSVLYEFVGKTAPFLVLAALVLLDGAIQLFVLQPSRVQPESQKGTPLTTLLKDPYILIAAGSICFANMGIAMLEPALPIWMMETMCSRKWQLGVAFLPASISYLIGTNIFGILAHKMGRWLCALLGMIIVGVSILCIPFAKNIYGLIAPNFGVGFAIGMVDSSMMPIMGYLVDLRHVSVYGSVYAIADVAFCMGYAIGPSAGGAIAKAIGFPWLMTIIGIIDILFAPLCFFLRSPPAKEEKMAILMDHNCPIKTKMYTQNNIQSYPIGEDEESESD

Chain of TGF-beta receptor type-1 (Homo sapiens) (P36897 whole entry): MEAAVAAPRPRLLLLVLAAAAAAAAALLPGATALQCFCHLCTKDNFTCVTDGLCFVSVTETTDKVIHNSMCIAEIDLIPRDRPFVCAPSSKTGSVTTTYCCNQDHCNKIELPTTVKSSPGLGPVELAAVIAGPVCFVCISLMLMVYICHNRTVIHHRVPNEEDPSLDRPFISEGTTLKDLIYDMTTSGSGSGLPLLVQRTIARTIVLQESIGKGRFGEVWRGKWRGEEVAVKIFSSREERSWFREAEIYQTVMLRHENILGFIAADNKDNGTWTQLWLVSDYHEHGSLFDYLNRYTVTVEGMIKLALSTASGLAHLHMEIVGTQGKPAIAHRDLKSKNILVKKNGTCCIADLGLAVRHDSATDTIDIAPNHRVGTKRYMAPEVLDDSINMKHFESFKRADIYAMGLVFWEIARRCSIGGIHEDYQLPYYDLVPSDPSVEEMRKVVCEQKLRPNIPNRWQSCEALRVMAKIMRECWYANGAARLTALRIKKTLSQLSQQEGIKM
Chain of Delta-type opioid receptor (Homo sapiens) (P41143 whole entry): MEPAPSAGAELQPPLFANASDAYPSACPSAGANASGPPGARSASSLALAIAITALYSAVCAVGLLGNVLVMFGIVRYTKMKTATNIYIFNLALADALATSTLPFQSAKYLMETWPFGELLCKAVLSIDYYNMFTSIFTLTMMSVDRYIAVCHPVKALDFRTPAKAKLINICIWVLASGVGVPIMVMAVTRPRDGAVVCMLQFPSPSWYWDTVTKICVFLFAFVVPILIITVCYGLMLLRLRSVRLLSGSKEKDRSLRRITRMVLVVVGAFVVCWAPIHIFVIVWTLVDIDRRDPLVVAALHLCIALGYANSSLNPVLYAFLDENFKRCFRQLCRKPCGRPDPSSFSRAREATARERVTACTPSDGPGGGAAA

Compound N#CC1(c2ccccn2)CCN(Cc2cc(C(=O)N3CCCC3)c(=O)n3ccccc23)CC1 has a residual activity [1] of 72% and an inhibition [2] of -0.84%.
Work on N#CC1(c2ccccn2)CCN(Cc2cc(C(=O)O)c(=O)n3ccccc23)CC1 [MSD-M1PAM] yielded an inhibition (Homo sapiens) of -2%, an inhibition [3] of 13% and an inhibition [4] of 15%. For the same compound, the inhibition [5] was -1%, the inhibition [6] was 11% and the inhibition [7] was -9%. It also gave an inhibition [8] of 11%, an inhibition [9] of 3% and an IC50 [10] of 10 µM. For the same compound, the inhibition [11] was -8%, the inhibition [12] was 6% and the inhibition [13] was 8%. It also gave an inhibition [14] of 2%, an inhibition [15] of 14% and an inhibition [16] of 12%. It also gave an inhibition [17] of 7%, an inhibition [18] of 19% and an inhibition [19] of 3%. For the same compound, the inhibition (Rattus norvegicus) was -4%, the inhibition [20] was 18% and the inhibition [21] was 0%. For the same compound, the inhibition [22] was 9%.
